Test results reported in PMC8421423, “Cellular model system to dissect the isoform-selectivity of Akt inhibitors” (Nature Communications, 2021).
Where “and” joins values, the source holds several entries; their conditions need not be identical. Equal values may be shown once. Read-outs that look alike come from different tables or passages of the source.

Tests used:
Akt1 [1] = molecular target: T1, Akt1 (Homo sapiens, UniProt P31749); test: Cellular thermal shift assay (CETSA) in PANC1 cells; format: cell-based; set-up: purchased ProQinase #1379-0000-2; settings: CETSA PANC1, 1 µM
Protocol: (§1) Cells were seeded into 100 mm tissue culture plates (Sarstedt) (PANC1: 10^6 cells). After 24 h incubation, cells were treated with 1 µM of inhibitors or DMSO and were incubated for 4.5 h. Cells were washed twice with ice-cold PBS and then suspended in 1 mL PBS. Cells were collected and separated into equal volumes (100 µL). The aliquots were treated individually with different temperatures for 3 min, followed by a 3 min incubation at room temperature. Cell lysis was initiated by adding 100 µL RIPA buffer and 2 freeze-thaw cycles in liquid nitrogen. The lysates were centrifuged at 21,130×g for 20 min at room temperature. The supernatants were transferred into fresh, pre-cooled microcentrifuge tubes, and analyzed by western blot analysis as described above.

Akt2 [2] = molecular target: T2, Akt2 (Homo sapiens, UniProt P31751); test: as above; format: cell-based; set-up: purchased Thermo Fisher Scientific #PV3184; settings: for tAkt2 %: CETSA PANC1, 1 µM
Protocol: as §1

Akt3 [3] = molecular target: T3, Akt3 (Homo sapiens, UniProt Q9Y243); test: STK HTRF KinEASE activity-based assay (IC50)
Akt2 [4] = molecular target: T2, Akt2; test: STK HTRF KinEASE activity-based assay (IC50)
Ba/F3^myr-Akt2 cells = test: CellTiter-Glo cell viability assay; settings: for cell viability: CTG
Ba/F3^myr-Akt1 cells = test: CellTiter-Glo cell viability assay; settings: for cell viability: CTG
pAkt2 = test: Western blot analysis, PANC1 cells; format: cell-based, human; settings: PANC1, 24-h treatment
Protocol: Cells were seeded into six-well tissue culture plates (Sarstedt) (BaF3 myr-Akt1/2/3: 10^6 cells/well, PANC1: 250.000 cells/well). […] Cell lysis was initiated by addition of 100 μL RIPA buffer (Cell Signaling Technology) per well supplemented with phosphatase and protease inhibitor cocktails (Sigma) followed by incubation on ice for 20 min. Cells were then harvested by scraping (PANC1) or centrifugation (BaF3). Whole cell lysates were cleared by centrifugation at 14,000×g/4 °C for 10 min and transferred into fresh, pre-cooled microcentrifuge tubes. Protein concentrations were determined using the Pierce BCA protein assay (Thermo) as per manufacturer’s instructions. Equal amounts of protein were separated by SDS-PAGE and transferred to Immobilon-FL PVDF membranes (Merck Millipore) using Pierce™ 1-step transfer buffer (Thermo) and the Pierce™ Power Blotter (Thermo). Membranes were washed for 5 min with ddH2O, blocked with Intercept®Blocking Buffer TBS (Li-Cor) for 1 h at room temperature, and then incubated with primary antibodies diluted in Intercept®Blocking Buffer TBS overnight at 4 °C with gentle agitation. On the next day, the membranes were washed three times with TBS-T (50 mM Tris, 150 mM NaCl, 0.05 % Tween 20, pH 7.4) for 5 min before being incubated with secondary antibodies diluted in Intercept®Blocking Buffer TBS for 1 h at room temperature with gentle agitation. Finally, the membranes were washed three times for 5 min with TBS-T and then scanned using an Odyssey®CLx imaging system (Li-Cor).

Akt1 [5] = molecular target: T1, Akt1; test: STK HTRF KinEASE activity-based assay (IC50)
[6] = CellTiter-Glo cell viability assay; format: cell-based, murine; settings: mouse, parental Ba/F3 cells, CTG, parental, single replicates
parental Ba/F3 cells = test: CellTiter-Glo cell viability assay; format: cell-based, murine; settings: for cell viability: CTG, parental
Akt3 [7] = molecular target: T3, Akt3; test: Cellular thermal shift assay (CETSA) in PANC1 cells; format: cell-based; set-up: purchased ProQinase #1578-0000-1; settings: CETSA PANC1, 1 µM
Protocol: as §1

Ba/F3^myr-Akt3 cells = test: CellTiter-Glo cell viability assay; settings: for cell viability: CTG
[8] = cell viability assay Ba/F3 myr-Akt cells, log units

T1 sequence (P31749 whole entry): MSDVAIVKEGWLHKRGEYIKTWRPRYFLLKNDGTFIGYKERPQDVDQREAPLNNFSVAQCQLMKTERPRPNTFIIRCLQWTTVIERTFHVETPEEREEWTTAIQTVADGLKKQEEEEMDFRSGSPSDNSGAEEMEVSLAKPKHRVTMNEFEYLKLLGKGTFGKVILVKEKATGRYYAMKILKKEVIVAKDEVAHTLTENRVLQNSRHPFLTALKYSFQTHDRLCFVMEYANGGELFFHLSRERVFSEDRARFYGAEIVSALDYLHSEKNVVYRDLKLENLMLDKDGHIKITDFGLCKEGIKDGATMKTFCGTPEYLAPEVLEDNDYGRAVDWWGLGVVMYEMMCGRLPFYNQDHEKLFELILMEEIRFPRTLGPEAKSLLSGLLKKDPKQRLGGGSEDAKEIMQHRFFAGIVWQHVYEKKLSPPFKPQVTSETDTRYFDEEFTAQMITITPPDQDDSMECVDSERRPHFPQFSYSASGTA
T3 sequence (Q9Y243 whole entry): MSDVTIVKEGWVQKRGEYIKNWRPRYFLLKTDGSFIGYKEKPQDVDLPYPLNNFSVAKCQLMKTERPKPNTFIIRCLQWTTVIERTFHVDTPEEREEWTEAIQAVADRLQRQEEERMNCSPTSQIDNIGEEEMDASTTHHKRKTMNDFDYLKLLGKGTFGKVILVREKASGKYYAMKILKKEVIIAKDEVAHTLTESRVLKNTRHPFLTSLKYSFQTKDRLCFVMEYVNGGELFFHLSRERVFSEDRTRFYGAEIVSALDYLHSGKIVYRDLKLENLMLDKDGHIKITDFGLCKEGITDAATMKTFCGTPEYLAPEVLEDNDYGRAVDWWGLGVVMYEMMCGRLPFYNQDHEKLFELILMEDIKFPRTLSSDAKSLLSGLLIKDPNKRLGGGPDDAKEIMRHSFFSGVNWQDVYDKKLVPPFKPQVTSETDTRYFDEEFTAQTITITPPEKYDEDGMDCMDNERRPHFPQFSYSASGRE
T2 sequence (P31751 whole entry): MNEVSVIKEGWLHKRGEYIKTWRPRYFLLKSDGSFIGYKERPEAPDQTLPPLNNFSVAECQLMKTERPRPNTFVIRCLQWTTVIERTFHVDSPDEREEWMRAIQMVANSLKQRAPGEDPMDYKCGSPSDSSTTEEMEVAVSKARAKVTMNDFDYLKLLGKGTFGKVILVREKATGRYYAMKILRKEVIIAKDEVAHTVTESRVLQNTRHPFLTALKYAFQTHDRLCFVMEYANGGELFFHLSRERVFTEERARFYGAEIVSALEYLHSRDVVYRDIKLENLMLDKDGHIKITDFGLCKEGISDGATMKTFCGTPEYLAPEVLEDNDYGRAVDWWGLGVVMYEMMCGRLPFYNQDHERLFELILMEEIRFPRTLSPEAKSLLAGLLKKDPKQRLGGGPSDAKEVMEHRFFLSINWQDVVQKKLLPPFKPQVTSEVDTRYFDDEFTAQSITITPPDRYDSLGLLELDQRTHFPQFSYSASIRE

With `C=CC(=O)Nc1ccc2[nH]c(=O)n(C3CCN(Cc4ccc(-c5ncc(Cc6cn[nH]c6)cc5-c5ccccc5)cc4)CC3)c2c1` [compound 14] the tAkt1 % (Akt1 [1]; temperature 39.9) was 100.00%, the tAkt1 % (Akt1 [1]; temperature 43.5) was 52.07% and the tAkt1 % (Akt1 [1]; temperature 48.4) was 40.09%. For the same compound, the tAkt1 % (Akt1 [1]; temperature 53.8) was 35.60%, the tAkt1 % (Akt1 [1]; temperature 58.1) was 20.87% and the tAkt1 % (Akt1 [1]; temperature 61.4) was 22.87%. For the same compound, the tAkt1 % (Akt1 [1]; temperature 65.6) was 16.43%, the tAkt1 % (Akt1 [1]; temperature 70.9) was 3.87% and the tAkt1 % (Akt1 [1]; temperature 76) was 1.25%. The tAkt1 % (Akt1 [1]; temperature 79.9) was 0.00%, the tAkt2 % (Akt2 [2]; temperature 39.9) was 100.00% and the tAkt2 % (Akt2 [2]; temperature 43.5) was 102.39%. It also gave a tAkt2 % (Akt2 [2]; temperature 48.4) of 91.99%, a tAkt2 % (Akt2 [2]; temperature 53.8) of 80.16% and a tAkt2 % (Akt2 [2]; temperature 58.1) of 72.88%. The tAkt2 % (Akt2 [2]; temperature 61.4) was 43.24%, the tAkt2 % (Akt2 [2]; temperature 65.6) was 13.13% and the tAkt2 % (Akt2 [2]; temperature 70.9) was 8.83%. For the same compound, the tAkt2 % (Akt2 [2]; temperature 76) was 2.38%, the tAkt2 % (Akt2 [2]; temperature 79.9) was 0.00% and the “thermal stabilization of Akt2 (CETSA, in words)” value (Akt2 [2]; PANC1, 1 µM) was “significant thermal stabilization of Akt2”. For the same compound, the IC50 (Akt3 [3]; HTRF IC50 Akt3, Mean, mean of replicates) was 356 nM, the IC50 (Akt3 [3]; HTRF IC50 Akt3, individual determinations, single replicates) was 231 nM and 426 nM and 410 nM and the IC50 (Akt3 [3]; IC50 Akt3, HTRF, ATP at KM, 1 h preincubation) was 356 ± 88 nM. The IC50 (Akt2 [4]; HTRF IC50 Akt2, Mean, mean of replicates) was 23.9 nM, the IC50 (Akt2 [4]; HTRF IC50 Akt2, individual determinations, single replicates) was 21.3 nM and 30 nM and 19.2 nM and 20.5 nM and the IC50 (Akt2 [4]; IC50 Akt2, HTRF, ATP at KM, 1 h preincubation) was 23 ± 4 nM. The cell viability (Ba/F3^myr-Akt2 cells; myr-Akt2, 0.1 nM, single replicates, 0.0001 µM) was 101.1 % of control and 98.7 % of control, the cell viability (Ba/F3^myr-Akt2 cells; myr-Akt2, 5000 nM, single replicates, 5 µM) was 0.2 % of control and 0.55 % of control and 2.5 % of control and the EC50 (Ba/F3^myr-Akt2 cells; Mus musculus, read-out: CTG BaF3myr-Akt2, Mean, mean of replicates) was 529 nM. The viability at 0.0001 µM (Ba/F3^myr-Akt2 cells; Mus musculus, read-out: cell viability, CTG, myr-Akt2, 0.1 nM, single replicates) was 104%, the EC50 (Ba/F3^myr-Akt2 cells; read-out: CTG BaF3myr-Akt2, individual determinations, single replicates) was 932 nM and 277 nM and 378 nM and the cell viability (Ba/F3^myr-Akt1 cells; myr-Akt1, 0.1 nM, single replicates, 0.0001 µM) was 103.7 % of control and 102.7 % of control. The cell viability (Ba/F3^myr-Akt1 cells; myr-Akt1, 5000 nM, single replicates, 5 µM) was 79.7 % of control and 82.2 % of control, the EC50 (Ba/F3^myr-Akt1 cells; Mus musculus, read-out: CTG BaF3myr-Akt1, Mean, mean of replicates) was 7560 nM and the EC50 (Ba/F3^myr-Akt1 cells; Mus musculus, read-out: CTG BaF3myr-Akt1, individual determinations, single replicates) was 6920 nM. The viability at 0.0001 µM (Ba/F3^myr-Akt1 cells; Mus musculus, read-out: cell viability, CTG, myr-Akt1, 0.1 nM, single replicates) was 100%, the viability at 5 µM (Ba/F3^myr-Akt1 cells; Mus musculus, read-out: cell viability, CTG, myr-Akt1, 5000 nM, single replicates) was 71.9% and the “Log ratio EC50 [Akt] / EC50 [Akt], Akt1 / Akt2” value (Ba/F3^myr-Akt1 cells; [8]) was 1.15. For the same compound, the EC50 (Ba/F3^myr-Akt1 cells; read-out: CTG BaF3myr-Akt1, individual determinations, single replicates) was 7890 nM and 7860 nM, the “pAkt2 level (immunoblot)” value (pAkt2) was “efficient downregulation of Akt2 phosphorylation” and the IC50 (Akt1 [5]; HTRF IC50 Akt1, Mean, mean of replicates) was 527 nM. The IC50 (Akt1 [5]; HTRF IC50 Akt1, individual determinations, single replicates) was 543 nM and 509 nM and 531 nM, the IC50 (Akt1 [5]; IC50 Akt1, HTRF, ATP at KM, 1 h preincubation) was 527 ± 14 nM and the “Log ratio IC50 [Akt] / IC50 [Akt], Akt1 / Akt2” value (Akt1 [5]; biochemical activity based assay, log units) was 1.35. For the same compound, the viability at 3 days, 0.0001 µM ([6]; 0.1 nM, read-out: cell viability) was 101%, the viability at 3 days, 5 µM ([6]; 5000 nM) was 105% and the cell viability (parental Ba/F3 cells; 0.1 nM, single replicates, 0.0001 µM) was 100.0 % of control and 99.0 % of control. For the same compound, the cell viability (parental Ba/F3 cells; 5000 nM, single replicates, 5 µM) was 99.0 % of control and 97.0 % of control, the EC50 (parental Ba/F3 cells; Mus musculus, BaF3, parental cells, mean of replicates, read-out: CTG BaF3, Mean) was 8640 nM and the EC50 (parental Ba/F3 cells; Mus musculus, BaF3, parental cells, single replicates, read-out: CTG BaF3, individual determinations) was 8400 nM. For the same compound, the EC50 (parental Ba/F3 cells; parental cells, single replicates, read-out: CTG BaF3, individual determinations) was 7670 nM and 9860 nM, the tAkt3 % (Akt3 [7]; temperature 39.9) was 100.00% and the tAkt3 % (Akt3 [7]; temperature 43.5) was 108.88%. For the same compound, the tAkt3 % (Akt3 [7]; temperature 48.4) was 31.40%, the tAkt3 % (Akt3 [7]; temperature 53.8) was 28.60% and the tAkt3 % (Akt3 [7]; temperature 58.1) was 24.86%. For the same compound, the tAkt3 % (Akt3 [7]; temperature 61.4) was 22.71%, the tAkt3 % (Akt3 [7]; temperature 65.6) was 8.41% and the tAkt3 % (Akt3 [7]; temperature 70.9) was 4.62%. For the same compound, the tAkt3 % (Akt3 [7]; temperature 76) was 1.45%, the tAkt3 % (Akt3 [7]; temperature 79.9) was 0.00% and the cell viability (Ba/F3^myr-Akt3 cells; myr-Akt3, 0.1 nM, single replicates, 0.0001 µM) was 114.7 % of control and 87.0 % of control and 100.0 % of control. For the same compound, the cell viability (Ba/F3^myr-Akt3 cells; myr-Akt3, 5000 nM, single replicates, 5 µM) was 35.1 % of control and 52.3 % of control and 67.7 % of control, the EC50 (Ba/F3^myr-Akt3 cells; Mus musculus, read-out: CTG BaF3myr-Akt3, Mean, mean of replicates) was 4470 nM and the EC50 (Ba/F3^myr-Akt3 cells; Mus musculus, read-out: CTG BaF3myr-Akt3, individual determinations, single replicates) was 4320 nM. For the same compound, the “Log ratio EC50 [Akt] / EC50 [Akt], Akt3 / Akt2” value (Ba/F3^myr-Akt3 cells; [8]) was -0.93 and the EC50 (Ba/F3^myr-Akt3 cells; read-out: CTG BaF3myr-Akt3, individual determinations, single replicates) was 4620 nM and 4470 nM.
